Data: ChEMBL document CHEMBL3994576, “Targeting Alzheimer's disease by investigating previously unexplored chemical space surrounding the cholinesterase inhibitor donepezil” (Eur J Med Chem, 2017)

Columns and labels:
Acetylcholinesterase = Acetylcholinesterase (Electrophorus electricus, UniProt O42275); assay: Inhibition of electric eel AChE using acetylthiocholine iodide as substrate by Ellman's method
SH-SY5Y = assay: cells; assay type: ADME, cell-based; conditions: Homo sapiens, 72 h;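 note: cytotoxicity read out with an SRB assay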
[1] = Elimination half life in human; assay type: ADME; conditions: read-out: beta t1/2
clinical = conditions: human, in vivo, po

Acetylcholinesterase, sequence (O42275 whole entry): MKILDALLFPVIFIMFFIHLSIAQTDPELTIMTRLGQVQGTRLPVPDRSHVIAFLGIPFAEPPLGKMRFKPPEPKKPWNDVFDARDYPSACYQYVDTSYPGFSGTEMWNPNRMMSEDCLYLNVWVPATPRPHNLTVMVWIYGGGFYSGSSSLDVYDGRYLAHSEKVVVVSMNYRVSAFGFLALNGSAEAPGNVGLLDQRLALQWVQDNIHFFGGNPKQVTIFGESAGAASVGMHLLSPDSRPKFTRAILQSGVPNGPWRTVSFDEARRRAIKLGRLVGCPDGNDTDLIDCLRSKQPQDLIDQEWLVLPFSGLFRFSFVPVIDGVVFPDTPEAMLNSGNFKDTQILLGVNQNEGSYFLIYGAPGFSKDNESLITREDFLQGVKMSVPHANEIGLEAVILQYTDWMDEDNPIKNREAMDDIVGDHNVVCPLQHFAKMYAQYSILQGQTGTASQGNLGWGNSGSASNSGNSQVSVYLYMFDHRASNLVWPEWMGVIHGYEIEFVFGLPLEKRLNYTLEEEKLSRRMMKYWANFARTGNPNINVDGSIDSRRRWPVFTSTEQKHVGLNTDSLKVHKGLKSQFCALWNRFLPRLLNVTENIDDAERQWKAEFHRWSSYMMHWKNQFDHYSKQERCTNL

| SMILES | IC50 (Acetylcholinesterase) | IC50 (SH-SY5Y) | half-life [1] | bioavailability (clinical) |
| --- | --- | --- | --- | --- |
| COc1cc2c(cc1OC)C(=O)C(C(=O)OCC1CCN(Cc3ccccc3)C1)C2 (stereo not given) | > 10 µM | – | – | – |
| COc1cc2c(cc1OC)C(=O)C(C[C@@H]1CCCN1Cc1ccccc1)C2 (stereo not given in full) | 3.16 µM | – | – | – |
| COc1cc2c(cc1OC)C(=O)/C(=C/C1CCN1Cc1ccccc1)C2 (stereo not given) | > 10 µM | – | – | – |
| COc1cc2c(cc1OC)C(=O)/C(=C/C1CCN(Cc3ccccc3)CC1)C2 | 0.42 µM | 3.99 µM | – | – |
| COc1cc2c(cc1OC)C(=O)C(CC1CCCN(Cc3ccccc3)C1)C2 (stereo not given) | 0.51 µM | 66.7 µM | – | – |
| COc1cc2c(cc1OC)C(=O)C(C(=O)OCC1CCCN1Cc1ccccc1)C2 (stereo not given) | > 10 µM | – | – | – |
| COc1cc2c(cc1OC)C(=O)C(OC(=O)C1CCN(Cc3ccccc3)CC1)C2 (stereo not given) | – | > 100 µM | – | – |
| COc1cc2c(cc1OC)C(=O)/C(=C/C1CCCN(Cc3ccccc3)C1)C2 (stereo not given) | 1.18 µM | 4.72 µM | – | – |
| COc1cc2c(cc1OC)C(=O)C(CC1CCN1Cc1ccccc1)C2 (stereo not given) | > 10 µM | 58.5 µM | – | – |
| COc1cc2c(cc1OC)C(=O)C(C(=O)C1CCN(Cc3ccccc3)CC1)C2 (stereo not given) | 0.66 µM | 63.9 µM | – | – |
| COc1cc2c(cc1OC)C(=O)C(C(=O)OC1CCN(Cc3ccccc3)CC1)C2 (stereo not given) | 3.03 µM | > 100 µM | – | – |
| COc1cc2c(cc1OC)C(=O)/C(=C/C1CN1Cc1ccccc1)C2 (stereo not given) | > 10 µM | – | – | – |
| COc1cc2c(cc1OC)C(=O)C(C(=O)OCC1CCCN(Cc3ccccc3)C1)C2 (stereo not given) | > 10 µM | – | – | – |
| COc1cc2c(cc1OC)C(=O)C(C(=O)OCC1CCCCN1Cc1ccccc1)C2 (stereo not given) | > 10 µM | – | – | – |
| COc1cc2c(cc1OC)C(=O)C(CC1CCCCN1Cc1ccccc1)C2 (stereo not given) | 0.46 µM | > 100 µM | – | – |
| COc1cc2c(cc1OC)C(=O)/C(=C/C1CCN(Cc3ccccc3)C1)C2 (stereo not given) | 0.52 µM | 6.59 µM | – | – |
| COc1cc2c(cc1OC)C(=O)C(C(=O)OCC1CCN1Cc1ccccc1)C2 (stereo not given) | > 10 µM | – | – | – |
| COc1cc2c(cc1OC)C(=O)C(C(=O)OCC1CN(Cc3ccccc3)C1)C2 (stereo not given) | > 10 µM | > 100 µM | – | – |
| COc1cc2c(cc1OC)C(=O)C(C(=O)OCC1CN1Cc1ccccc1)C2 (stereo not given) | > 10 µM | – | – | – |
| COc1cc2c(cc1OC)C(=O)/C(=C/C1CCCCN1Cc1ccccc1)C2 (stereo not given) | 0.75 µM | – | – | – |
| COc1cc2c(cc1OC)C(=O)C(CC1CCN(Cc3ccccc3)CC1)C2 (stereo not given) [DONEPEZIL] | – | 15.5 µM | 70 to 80 h | 100% |
| COc1cc2c(cc1OC)C(=O)C(CC1CCN(Cc3ccccc3)C1)C2 (stereo not given) | 1.74 µM | – | – | – |
| COc1cc2c(cc1OC)C(=O)C(C(=O)OCC1CCN(Cc3ccccc3)CC1)C2 (stereo not given) | > 10 µM | – | – | – |
| COc1cc2c(cc1OC)C(=O)/C(=C/C1CCCN1Cc1ccccc1)C2 (stereo not given) | > 10 µM | 19 µM | – | – |
| COc1cc2c(cc1OC)C(=O)/C(=C/C1CN(Cc3ccccc3)C1)C2 | 0.7 µM | 1.26 µM | – | – |
| COc1cc2c(cc1OC)C(=O)C(CC1CN(Cc3ccccc3)C1)C2 (stereo not given) | 1.13 µM | 8.01 µM | – | – |
